Reference: the supplement of paper PMC10307832

Columns and labels:
Test in all cases: relative viability (nuclei count vs DMSO), 5 days (fraction); higher = more cells survive
[1] = compound: C1CC2=C(C1)C=C(C=C2)OC3=NC(=C4C(=N3)N(C=N4)CC5=CC=C(C=C5)C6=CC=CC=C6)N[C@@H](CC7=CC=CC=C7)CO [QS11] + COc1cc2c(Oc3ccc(NC(=O)C4(C(=O)Nc5ccc(F)cc5)CC4)cc3F)ccnc2cc1OCCCN1CCOCC1 [Foretinib] (partner 0.25 µM)
In short: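 One day after seeding in 1536-well plates, lung cancer cell lines were dosed by pin tool. Dosing was either single-drug or a fixed anchor-drug dose plus five library-drug doses (not always all listed) in √10 steps. After 5 days, nuclei were stained in one fix-and-stain step and counted on 4× images, and relative viability is the nuclei count of treated wells over that of vehicle wells, given as the median of duplicate plates.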

[2] = compound: C1CC2=C(C1)C=C(C=C2)OC3=NC(=C4C(=N3)N(C=N4)CC5=CC=C(C=C5)C6=CC=CC=C6)N[C@@H](CC7=CC=CC=C7)CO [QS11]
In short: (§1)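 After an overnight hold at 37 °C, lung cancer cell lines in 1536-well plates were pinned with five library-drug doses (not always all listed), each √10 from the next, on vehicle-anchored plates. The cells stayed 5 days without fresh medium, then a one-step fix, permeabilisation and Hoechst stain preceded 4× imaging and MetaXpress nuclear counts. A plate passed only with control CV under 25% and at least one doubling. Viability is the median, over plates, of treated-well nuclei relative to vehicle-well nuclei.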

[3] = compound: C[As](C)SC[C@H](NC(=O)CC[C@H](N)C(=O)O)C(=O)NCC(=O)O [Darinaparsin]
In short: as §1

[4] = compound: CC1=C(C=C(C=C1)NC(=O)C2=CC(=CC=C2)C(C)(C)C#N)NC3=CC4=C(C=C3)N=CN(C4=O)C [AZ628]
In short: as §1

Cell Line	relative viability ([1]; first compound 0.08 µM)	relative viability ([1]; first compound 0.253 µM)	relative viability ([1]; first compound 0.8 µM)	relative viability ([1]; first compound 2.53 µM)	relative viability ([1]; first compound 8 µM)	relative viability ([2]; 0.08 µM)	relative viability ([2]; 0.253 µM)	relative viability ([2]; 0.8 µM)	relative viability ([2]; 2.53 µM)	relative viability ([2]; 8 µM)	relative viability ([3]; 0.08 µM)	relative viability ([3]; 0.8 µM)	relative viability ([3]; 2.53 µM)	relative viability ([3]; 8 µM)	relative viability ([4]; 0.08 µM)	relative viability ([4]; 0.253 µM)	relative viability ([4]; 0.8 µM)	relative viability ([4]; 2.53 µM)	relative viability ([4]; 8 µM)
201T	1.18	1.08	0.868	1.04	0.632	0.994	0.909	0.819	0.895	0.828	0.996	0.998	0.947	0.986	1.03	0.997	1.07	1.06	1.04
A549	0.911	0.883	0.697	0.918	0.917	0.974	0.971	0.829	0.912	0.927	1	0.987	0.991	1.21	1.02	0.865	0.787	0.897	0.452
A-427	1.13	1.15		1.22	1.17	0.862	1.05		1.05	1.04	1.1	0.96	1.03	1.13	0.999	0.891	0.884	0.919	0.436
ABC-1	0.912	1.06	1.06	1.08	1.32	1	0.957	0.895	1.17	1.15	0.952	0.956	0.928	0.968	1.12	0.727	0.873	0.793	0.767
BEN	0.47	0.616	0.814	0.691	0.701	0.821	1.03	1.13	1.1	1.25	1.08	1.03	0.92	1.3	1.11	0.838	0.899	1.01	0.843
CAL-12T	1.04	1.1	0.98	1.06	0.939	0.96	0.986	0.96	0.908	0.873	1.15	1	0.985	1.11	0.987	0.831	0.81	0.806	0.685
COR-L23	0.976	1.03	0.716	0.802	0.735	1.02	1.01	0.827	0.918	0.648	1.11	0.995	0.96	1.37	1.08	1.1	0.957	1.12	0.614
COR-L 105	1.08	1.25	0.924	0.991	0.992	0.895	0.89	0.822	0.892	0.831	0.996	0.986	0.781	1.03	1.01	1.14	0.951	0.928	0.592
Calu-6	1.04	0.93	0.897	0.953	0.998	1.11	1.06	0.941	1.1	1.07	1.2	0.99	1.01	1.14	1.02	0.899	0.754	0.784	0.207
ChaGo-K-1	0.816	0.967	0.971	0.99	0.895		1	1.11	1.09	1.14	1.07	1.01	0.949	1.03	1.14	0.965	0.984	1.06	1.01
EBC-1	0.0939	0.0918	0.115	0.11	0.144	1.06	1.05	0.934	0.97	0.92	1.2	0.971	0.935	1.05	0.955	0.958	0.983	0.911	0.625
EKVX	0.732	0.764		0.848	1.23	0.973	0.922	0.602	0.907	1.06	1.04	0.922	0.943	1.04	1.05	0.959	1	0.939	0.774
EMC-BAC-2	1.03	1.02	0.857	0.652	0.622	1.02	0.964	0.86	0.986	0.79	1.18	0.942	1.04	1.01	1.05	1	1.04	1.07	1.09
EPLC-272H		0.817	0.64	0.677	0.692	0.698	1.02	0.949	0.995	0.908	0.8	0.841	0.902	0.992	0.955	0.848	0.971	0.953	0.628
H3255	0.787	0.864		0.927	0.93	0.947	1.01		1.01	1.08	1.02	1.01	0.896	1.01	0.996	0.908	0.975	1.02	0.693
HARA	0.841	0.933		0.944	1.2	0.931	0.875		1.02	0.995	1.08	0.88	0.914	1.04	0.978	0.962	0.825	0.974	0.563
HCC-15	0.999	1.12	0.764	1.01	0.899	1.02	1.06	0.693	0.971	0.915	1.18	1	0.992	1.14	1.02	0.924	0.858	0.86	0.56
